Laboratory results as given in patent publication US20240350649A1, “TREATMENT AND DIAGNOSIS OF IMMUNE DISORDERS RELATING TO ABERRANT IMMUNE CELLS” (Octagon Therapeutics, Inc., priority 2021, published 2024).
Entries after “also recorded” stand apart in the source; their conditions may differ.

How the values were obtained:
Type in all cases: cell-based
[1] = system: primary CD19+ B lymphocytes; test: Mixed-cell assay, B lymphocytes in mixed PBMC population by flow cytometry; details: FIG. 5E; for suppression of B cell proliferation in mixed PBMC population: 1 μM to 50 μM range
Experimental: (§1) 0.5×10^6 primary cells (purified CD19+ primary B cells (Precision for Medicine, MD) or 0.5×10^6 CD3+ primary T cells (Precision for Medicine, MD Primary PBMCs (Precision for Medicine, MD) from a healthy donor were stimulated with 10% v/v plasma from either a healthy donor, a pemphigus vulgaris (PV) donor, or a systemic lupus erythematosus (SLE) donor for 24 hours at 37 C, 5% CO2. Compound OTG177 was added at 1 μM, 10 μM and 50 μM concentrations with DMSO as a mock treatment. After 24 hours-72 hours of treatment, cells were labeled with anti-CD45 antibody (5 μl/million cells in 100 μl volume, clone HI30, BUV395, Biolegend, CA), anti-CD19 antibody (5 μl per million cells in 100 μl volume, Clone HIB, PE-CF594, Biolegend, CA) anti-CD3 antibody (5 μl/million cells in 100 μl volume, clone SK7, FITC, Biolegend, CA). Propidium (1 μg/ml) was used to select cells based on their viability. The cells were analyzed by multi-colored flow cytometry using an Attune NxT Flow Cytometer (ThermoFisher).
(§2) In addition, the effect of OTG177 on B and T lymphocytes was examined by first gating all PBMCs by forward scattering (FSC) versus side scattering (SSC) and isolating the low SSC and high FSC population (FIG. 5C), gating on this selection, the populations of segregated based on their staining to CD19 (red) and CD3 antibodies (green) (FIG. 5D).

[2] = system: primary CD3+ T lymphocytes; test: Mixed-cell assay, T lymphocytes in mixed PBMC population by flow cytometry; details: up to 50 μM; healthy, PV and SLE plasma; FIG. 5F
Experimental: as §1, §2

CD19+ primary B cells = test: BrdU incorporation proliferation assay, primary B cells stimulated with donor plasma; details: OTG177 up to 1000 μM, 72 hours
Experimental: (§3) 0.5×10^6 primary cells (purified CD19+ primary B cells, Precision for Medicine, MD) or 0.5×10^6 CD3+ primary T cells (Precision for Medicine, MD) from a healthy donor were assayed for their rate of proliferation via the BrdU incorporation method (Roche kit 11647229001), following vendor protocols. In brief, BrdU was added to cell culture for 2 hours-12 hours. The cells were dried with hot air ventilation and fixed with saline and ethanol. The incorporated BrdU was measured with an ELISA assay with an anti BrdU antibody (Roche).
(§4) A representative compound according to the disclosure, OTG177 (FIG. 4), was constructed according to the synthetic scheme shown in FIGS. 2A and 2B using the Bait CD10 substrate succinyl-Ala-Ala-Phe- and an antiproliferative Payload RMP. This compound was tested in this proliferation assay as follows: negative selected lymphocytes (either B or T cells) were incubated with different concentration of OTG177 up to 1000 μM with 10% plasma from either a healthy donor or a flaring Pemphigus Vulgaris donor. All conditions had 30 units/ml of heparin to prevent clotting of the plasma. Cells were incubated for 72 hours at 37° C. 5% CO2 and a BrdU incorporation assay was performed with kit (Roche) as described before.

[3] = system: PBMC (granulocytes, monocytes, lymphocytes); test: Mixed-cell assay, PBMC composition by flow cytometry (SSC vs CD45); details: up to 50 μM; healthy, PV or SLE donor plasma; FIG. 5B
Experimental: as §1
Overall peripheral blood mononuclear cell (PBMC) composition was evaluated by gating side scattering (SSC) versus CD45, a pan leukocyte marker (FIG. 5A). This gating strategy can differentiate different leukocyte populations based on their scattering profiles.

CD3+ primary T cells = test: BrdU incorporation proliferation assay, primary T cells stimulated with donor plasma; details: OTG177 up to 1000 μM, 72 hours
Experimental: as §3, §4

C[C@H](NC(=O)CCC(=O)O)C(=O)N[C@@H](C)C(=O)N[C@@H](Cc1ccccc1)C(=O)Nc1ccc2c(c1)COP(=O)(OC[C@H]1O[C@@H](n3cnc(C(N)=O)n3)[C@H](O)[C@@H]1O)O2 (stereo partly drawn) [OTG177, 4-[[(1S)-2-[[(1S)-2-[[(1S)-1-benzyl-2-[[2-[[(2R,3S,4R,5R)-5-(3-carbamoyl-1,2,4-triazol-1-yl)-3,4-dihydroxy-tetrahydrofuran-2-yl]methoxy]-2-oxo-4H-1,3,2benzodioxaphosphinin-6-yl]amino]-2-oxo-ethyl]amino]-1-methyl-2-oxo-ethyl]amino]-1-methyl-2-oxo-ethyl]amino]-4-oxo-butanoic Acid]
suppression of B cell proliferation in mixed PBMC population ([1]; stimulated with PV plasma): dose-dependent suppression; also recorded: suppressive effect | suppression of B cell proliferation in mixed PBMC population ([1]; stimulated with SLE plasma): dose-dependent suppression; also recorded: suppressive effect | effect on B cells in mixed PBMC population ([1]; stimulated with healthy plasma, 1, 10, 50 μM): not affected | effect on T cells in mixed PBMC population [2]: not affected; also recorded: no obvious effect | antiproliferative activity in B cells (CD19+ primary B cells; 10% flaring pemphigus vulgaris donor's plasma, FIG. 4C): strong antiproliferative activity | antiproliferative activity in B cells (CD19+ primary B cells; 10% healthy donor's plasma, FIG. 4B): did not exhibit detectable antiproliferative activity | effect on PBMC composition (% granulocytes, monocytes, lymphocytes) [3]: not affected; also recorded: does not have obvious effects | antiproliferative activity in T cells (CD3+ primary T cells; 10% flaring pemphigus vulgaris donor's plasma, FIG. 4E): did not exhibit antiproliferative activity | antiproliferative activity in T cells (CD3+ primary T cells; 10% healthy donor's plasma, FIG. 4D): did not exhibit antiproliferative activity
